In ChEMBL document CHEMBL4507306, “Data for DCP probe KISS1-305” (2021):
The source made the active and inactive calls. The calls are words filed in the database; no cut-off is given here. Square brackets hold non-standard residues; d marks the D form. Peptide text beside a SMILES is read from it. Arg(Me) = CNC(=N)NCCC[C@H](N)C(=O)O; d3Pal = N[C@H](Cc1cccnc1)C(=O)O; d4Pal = N[C@H](Cc1ccncc1)C(=O)O; azaGly = NNC(=O)O

Experiments:
[1] = molecular target: 5-hydroxytryptamine receptor 1A (Homo sapiens) (UniProt P08908); details: Compound concentration 1.0 uM
[2] = molecular target: Sodium-dependent serotonin transporter (Homo sapiens) (UniProt P31645); details: Compound concentration 1.0 uM
Chain of Sodium-dependent serotonin transporter (Homo sapiens) (P31645 whole entry, looked up): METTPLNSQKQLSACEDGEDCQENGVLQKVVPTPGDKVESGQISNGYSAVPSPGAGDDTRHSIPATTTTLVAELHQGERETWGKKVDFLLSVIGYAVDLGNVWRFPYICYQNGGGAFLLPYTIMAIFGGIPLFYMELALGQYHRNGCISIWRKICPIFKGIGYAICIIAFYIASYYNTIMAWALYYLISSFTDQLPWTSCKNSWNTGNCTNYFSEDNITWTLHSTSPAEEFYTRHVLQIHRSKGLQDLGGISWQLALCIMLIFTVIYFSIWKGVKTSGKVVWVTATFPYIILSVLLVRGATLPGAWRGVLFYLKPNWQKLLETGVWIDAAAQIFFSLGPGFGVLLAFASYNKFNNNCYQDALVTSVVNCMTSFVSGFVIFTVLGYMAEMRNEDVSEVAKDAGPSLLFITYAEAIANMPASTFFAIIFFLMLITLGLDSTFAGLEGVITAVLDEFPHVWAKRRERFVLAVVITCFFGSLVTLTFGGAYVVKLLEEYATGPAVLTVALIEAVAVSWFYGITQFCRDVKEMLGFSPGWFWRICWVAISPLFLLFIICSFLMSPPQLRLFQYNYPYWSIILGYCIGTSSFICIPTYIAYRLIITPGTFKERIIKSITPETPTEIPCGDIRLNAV

[3] = molecular target: Muscarinic acetylcholine receptor M2 (Homo sapiens) (UniProt P08172); details: Compound concentration 1.0 uM
Chain of Muscarinic acetylcholine receptor M2 (Homo sapiens) (P08172 whole entry): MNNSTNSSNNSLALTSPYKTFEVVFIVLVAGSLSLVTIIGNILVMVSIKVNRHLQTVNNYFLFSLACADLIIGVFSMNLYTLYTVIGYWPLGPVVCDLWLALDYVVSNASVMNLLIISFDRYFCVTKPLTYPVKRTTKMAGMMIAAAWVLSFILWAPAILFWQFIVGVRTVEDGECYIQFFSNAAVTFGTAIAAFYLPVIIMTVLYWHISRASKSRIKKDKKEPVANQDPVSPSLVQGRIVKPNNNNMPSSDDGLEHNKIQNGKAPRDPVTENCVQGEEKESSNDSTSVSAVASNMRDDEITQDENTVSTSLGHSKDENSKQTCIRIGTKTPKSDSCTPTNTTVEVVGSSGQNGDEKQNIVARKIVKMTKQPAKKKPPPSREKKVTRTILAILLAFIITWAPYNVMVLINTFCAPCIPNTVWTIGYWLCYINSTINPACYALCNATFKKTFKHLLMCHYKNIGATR

[4] = molecular target: Alpha-2C adrenergic receptor (Homo sapiens) (UniProt P18825); details: Compound concentration 1.0 uM
[5] = molecular target: Delta-type opioid receptor (Homo sapiens, UniProt P41143); assay: GPCRScan assay: inhibition of DOR; design: radioligand conc. used [nm] 1.0 – 2.0, parental cells stable HEK
[6] = molecular target: Muscarinic acetylcholine receptor M3 (Homo sapiens) (UniProt P20309); details: Compound concentration 1.0 uM
[7] = molecular target: 5-hydroxytryptamine receptor 1B (Homo sapiens) (UniProt P28222); details: Compound concentration 1.0 uM
[8] = molecular target: Muscarinic acetylcholine receptor M1 (Homo sapiens) (UniProt P11229); details: Compound concentration 1.0 uM
Chain of Muscarinic acetylcholine receptor M1 (Homo sapiens) (P11229 whole entry): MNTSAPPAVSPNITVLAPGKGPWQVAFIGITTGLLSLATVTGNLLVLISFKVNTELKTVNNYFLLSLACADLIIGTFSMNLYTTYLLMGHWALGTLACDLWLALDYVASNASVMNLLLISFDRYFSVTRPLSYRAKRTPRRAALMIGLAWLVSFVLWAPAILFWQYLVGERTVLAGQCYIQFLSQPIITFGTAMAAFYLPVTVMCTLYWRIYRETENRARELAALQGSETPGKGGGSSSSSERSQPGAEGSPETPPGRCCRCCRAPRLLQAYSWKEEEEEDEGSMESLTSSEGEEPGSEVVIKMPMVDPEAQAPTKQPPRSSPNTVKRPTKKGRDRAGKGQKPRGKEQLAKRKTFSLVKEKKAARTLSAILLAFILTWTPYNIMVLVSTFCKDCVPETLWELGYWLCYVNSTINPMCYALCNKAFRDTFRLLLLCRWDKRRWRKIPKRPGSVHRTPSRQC

[9] = molecular target: Histamine H4 receptor (Homo sapiens) (UniProt Q9H3N8); details: Compound concentration 1.0 uM
[10] = molecular target: Alpha-2A adrenergic receptor (Homo sapiens) (UniProt P08913); details: Compound concentration 1.0 uM
[11] = molecular target: 5-hydroxytryptamine receptor 5A (Homo sapiens) (UniProt P47898); details: Compound concentration 1.0 uM
[12] = molecular target: Muscarinic acetylcholine receptor M4 (Homo sapiens) (UniProt P08173); details: Compound concentration 1.0 uM
Chain of Muscarinic acetylcholine receptor M4 (Homo sapiens) (P08173 whole entry): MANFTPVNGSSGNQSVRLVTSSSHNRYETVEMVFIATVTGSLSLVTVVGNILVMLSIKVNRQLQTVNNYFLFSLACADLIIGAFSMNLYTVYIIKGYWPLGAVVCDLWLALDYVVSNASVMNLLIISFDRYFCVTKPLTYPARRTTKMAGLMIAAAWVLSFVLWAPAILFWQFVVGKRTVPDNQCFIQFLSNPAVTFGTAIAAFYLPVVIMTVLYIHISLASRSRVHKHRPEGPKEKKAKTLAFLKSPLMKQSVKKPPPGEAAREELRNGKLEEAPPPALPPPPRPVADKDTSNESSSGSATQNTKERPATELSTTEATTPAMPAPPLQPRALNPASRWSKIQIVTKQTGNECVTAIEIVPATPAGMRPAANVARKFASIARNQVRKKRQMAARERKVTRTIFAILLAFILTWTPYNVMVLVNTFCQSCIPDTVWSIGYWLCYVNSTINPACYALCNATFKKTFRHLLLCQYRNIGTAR

[13] = molecular target: 5-hydroxytryptamine receptor 2C (Homo sapiens) (UniProt P28335); details: Compound concentration 1.0 uM
[14] = molecular target: Alpha-2B adrenergic receptor (Homo sapiens) (UniProt P18089); details: Compound concentration 1.0 uM
[15] = molecular target: Beta-1 adrenergic receptor (Homo sapiens) (UniProt P08588); details: Compound concentration 1.0 uM
Chain of Beta-1 adrenergic receptor (Homo sapiens) (P08588 whole entry, looked up): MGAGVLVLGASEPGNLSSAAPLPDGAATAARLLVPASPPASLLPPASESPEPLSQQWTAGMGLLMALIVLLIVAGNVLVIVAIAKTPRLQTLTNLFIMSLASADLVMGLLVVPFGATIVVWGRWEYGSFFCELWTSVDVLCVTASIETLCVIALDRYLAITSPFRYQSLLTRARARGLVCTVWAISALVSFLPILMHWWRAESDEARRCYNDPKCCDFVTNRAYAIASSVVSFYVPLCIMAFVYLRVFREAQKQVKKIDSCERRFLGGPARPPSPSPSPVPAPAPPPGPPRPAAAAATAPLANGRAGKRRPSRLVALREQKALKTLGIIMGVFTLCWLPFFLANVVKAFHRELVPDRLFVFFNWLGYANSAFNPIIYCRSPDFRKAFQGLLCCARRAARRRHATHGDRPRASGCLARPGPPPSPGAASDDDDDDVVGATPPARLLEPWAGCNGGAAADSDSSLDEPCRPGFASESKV

[16] = molecular target: D(1B) dopamine receptor (Homo sapiens) (UniProt P21918); details: Compound concentration 1.0 uM
[17] = molecular target: D(1A) dopamine receptor (Homo sapiens) (UniProt P21728); details: Compound concentration 1.0 uM
[18] = molecular target: Sodium-dependent noradrenaline transporter (Homo sapiens) (UniProt P23975); details: Compound concentration 1.0 uM
[19] = molecular target: Sigma intracellular receptor 2 (Homo sapiens) (UniProt Q5BJF2); details: Compound concentration 1.0 uM
Chain of Sigma intracellular receptor 2 (Homo sapiens) (Q5BJF2 whole entry): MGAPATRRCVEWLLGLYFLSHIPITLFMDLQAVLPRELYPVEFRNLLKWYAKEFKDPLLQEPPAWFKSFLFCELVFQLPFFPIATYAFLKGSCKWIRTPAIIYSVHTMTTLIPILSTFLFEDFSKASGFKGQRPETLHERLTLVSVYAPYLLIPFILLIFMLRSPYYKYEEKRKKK

[20] = molecular target: Alpha-1A adrenergic receptor (Homo sapiens) (UniProt P35348); details: Compound concentration 1.0 uM
[21] = molecular target: D(2) dopamine receptor (Homo sapiens) (UniProt P14416); details: Compound concentration 1.0 uM
Chain of D(2) dopamine receptor (Homo sapiens) (P14416 whole entry): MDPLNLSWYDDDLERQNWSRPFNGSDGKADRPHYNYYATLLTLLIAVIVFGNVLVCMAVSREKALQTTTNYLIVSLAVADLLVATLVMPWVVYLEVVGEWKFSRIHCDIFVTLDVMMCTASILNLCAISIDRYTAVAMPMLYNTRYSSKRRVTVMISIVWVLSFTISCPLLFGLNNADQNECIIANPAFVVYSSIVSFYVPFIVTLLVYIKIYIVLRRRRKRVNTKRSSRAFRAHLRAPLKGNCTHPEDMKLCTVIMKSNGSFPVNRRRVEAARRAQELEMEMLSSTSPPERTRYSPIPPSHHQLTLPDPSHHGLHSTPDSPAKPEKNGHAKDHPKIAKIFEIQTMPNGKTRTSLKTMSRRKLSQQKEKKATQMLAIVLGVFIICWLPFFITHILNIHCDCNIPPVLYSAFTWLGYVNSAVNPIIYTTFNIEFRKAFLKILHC

[22] = molecular target: Alpha-1B adrenergic receptor (Homo sapiens) (UniProt P35368); details: Compound concentration 1.0 uM
[23] = molecular target: Histamine H2 receptor (Homo sapiens) (UniProt P25021); details: Compound concentration 1.0 uM
Chain of Histamine H2 receptor (Homo sapiens) (P25021 whole entry): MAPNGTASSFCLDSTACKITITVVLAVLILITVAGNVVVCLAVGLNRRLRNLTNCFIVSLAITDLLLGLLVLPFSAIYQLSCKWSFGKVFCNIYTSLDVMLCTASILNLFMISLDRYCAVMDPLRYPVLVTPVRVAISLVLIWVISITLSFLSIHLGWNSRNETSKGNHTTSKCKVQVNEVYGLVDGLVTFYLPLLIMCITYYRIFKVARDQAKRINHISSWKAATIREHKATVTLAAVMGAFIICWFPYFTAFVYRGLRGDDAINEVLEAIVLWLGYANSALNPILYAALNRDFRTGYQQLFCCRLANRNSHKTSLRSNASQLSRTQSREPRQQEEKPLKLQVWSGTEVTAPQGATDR

[24] = molecular target: 5-hydroxytryptamine receptor 7 (Homo sapiens) (UniProt P34969); details: Compound concentration 1.0 uM
Chain of 5-hydroxytryptamine receptor 7 (Homo sapiens) (P34969 whole entry): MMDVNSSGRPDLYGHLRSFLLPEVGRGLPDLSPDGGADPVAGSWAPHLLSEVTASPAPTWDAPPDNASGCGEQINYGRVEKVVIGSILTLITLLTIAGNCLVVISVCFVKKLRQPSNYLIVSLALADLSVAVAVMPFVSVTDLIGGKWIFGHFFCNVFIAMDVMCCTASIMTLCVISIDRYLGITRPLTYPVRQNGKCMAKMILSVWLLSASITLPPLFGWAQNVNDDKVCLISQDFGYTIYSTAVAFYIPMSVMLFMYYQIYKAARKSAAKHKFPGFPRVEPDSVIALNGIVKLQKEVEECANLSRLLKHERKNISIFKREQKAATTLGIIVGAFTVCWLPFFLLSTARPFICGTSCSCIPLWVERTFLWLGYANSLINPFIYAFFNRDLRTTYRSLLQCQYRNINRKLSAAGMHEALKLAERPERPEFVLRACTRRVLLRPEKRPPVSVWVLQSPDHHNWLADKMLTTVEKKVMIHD

[25] = molecular target: T1, GABA-A receptor; anion channel (Rattus norvegicus) (UniProt O09028+P15431+P18506+P18508+P19969+P20236+P23574+P23576+P28471+P28473+P30191+P62813+P63079+P63138+Q91ZM7+Q9ES14); details: Compound concentration 1.0 uM
[26] = molecular target: Histamine H1 receptor (Homo sapiens) (UniProt P35367); details: Compound concentration 1.0 uM
[27] = molecular target: 5-hydroxytryptamine receptor 2B (Homo sapiens) (UniProt P41595); details: Compound concentration 1.0 uM
[28] = Cellular activity assay: GPR54 expressing cell growth
[29] = molecular target: Beta-2 adrenergic receptor (Homo sapiens) (UniProt P07550); details: Compound concentration 1.0 uM
[30] = molecular target: D(3) dopamine receptor (Homo sapiens) (UniProt P35462); details: Compound concentration 1.0 uM
[31] = molecular target: Sigma non-opioid intracellular receptor 1 (Homo sapiens) (UniProt Q99720); details: Compound concentration 1.0 uM
[32] = molecular target: Sodium-dependent dopamine transporter (Homo sapiens) (UniProt Q01959); details: Compound concentration 1.0 uM
[33] = molecular target: 5-hydroxytryptamine receptor 1E (Homo sapiens) (UniProt P28566); details: Compound concentration 1.0 uM
Chain of 5-hydroxytryptamine receptor 1E (Homo sapiens) (P28566 whole entry): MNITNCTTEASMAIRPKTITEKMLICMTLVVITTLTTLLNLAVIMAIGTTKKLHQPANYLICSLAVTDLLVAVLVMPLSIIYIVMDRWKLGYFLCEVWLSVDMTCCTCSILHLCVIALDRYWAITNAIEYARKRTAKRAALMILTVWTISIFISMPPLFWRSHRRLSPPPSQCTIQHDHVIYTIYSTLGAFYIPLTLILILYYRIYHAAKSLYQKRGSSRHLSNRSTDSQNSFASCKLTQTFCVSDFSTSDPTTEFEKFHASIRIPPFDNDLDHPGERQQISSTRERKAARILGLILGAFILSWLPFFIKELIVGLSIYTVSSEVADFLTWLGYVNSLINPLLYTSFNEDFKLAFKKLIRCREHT

[34] = molecular target: 5-hydroxytryptamine receptor 6 (Homo sapiens) (UniProt P50406); details: Compound concentration 1.0 uM
Rattus norvegicus = species: Rattus norvegicus; details: Compound concentration 1.0 uM
[35] = molecular target: T1, GABA-A receptor; anion channel (Rattus norvegicus); details: Compound concentration 1.0 uM; remark: listed apart in the source
[36] = molecular target: 5-hydroxytryptamine receptor 1D (Homo sapiens) (UniProt P28221); details: Compound concentration 1.0 uM
[37] = molecular target: Alpha-1D adrenergic receptor (Homo sapiens) (UniProt P25100); details: Compound concentration 1.0 uM
Chain of Alpha-1D adrenergic receptor (Homo sapiens) (P25100 whole entry): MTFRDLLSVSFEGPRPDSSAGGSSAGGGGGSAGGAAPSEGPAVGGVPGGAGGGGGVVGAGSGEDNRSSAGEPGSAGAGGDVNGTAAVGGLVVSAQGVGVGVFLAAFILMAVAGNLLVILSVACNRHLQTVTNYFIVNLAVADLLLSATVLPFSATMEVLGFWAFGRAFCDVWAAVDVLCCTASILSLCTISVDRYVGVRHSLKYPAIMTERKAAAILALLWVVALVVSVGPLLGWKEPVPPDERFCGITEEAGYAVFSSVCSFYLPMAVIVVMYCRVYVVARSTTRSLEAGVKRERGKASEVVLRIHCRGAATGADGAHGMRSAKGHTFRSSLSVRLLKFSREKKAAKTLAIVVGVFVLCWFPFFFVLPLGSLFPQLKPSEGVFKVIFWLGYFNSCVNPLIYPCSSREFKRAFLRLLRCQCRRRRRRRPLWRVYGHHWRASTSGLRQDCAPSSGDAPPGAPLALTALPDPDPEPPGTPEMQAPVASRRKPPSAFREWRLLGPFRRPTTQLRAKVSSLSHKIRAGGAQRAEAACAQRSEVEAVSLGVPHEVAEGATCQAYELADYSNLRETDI

[38] = molecular target: Muscarinic acetylcholine receptor M5 (Homo sapiens) (UniProt P08912); details: Compound concentration 1.0 uM
[39] = molecular target: Beta-3 adrenergic receptor (Homo sapiens) (UniProt P13945); details: Compound concentration 1.0 uM
[40] = molecular target: Kappa-type opioid receptor (Homo sapiens) (UniProt P41145); details: Compound concentration 1.0 uM
[41] = molecular target: Histamine H3 receptor (Homo sapiens) (UniProt Q9Y5N1); details: Compound concentration 1.0 uM
[42] = molecular target: Mu-type opioid receptor (Homo sapiens) (UniProt P35372); details: Compound concentration 1.0 uM
[43] = molecular target: 5-hydroxytryptamine receptor 3A (Homo sapiens) (UniProt P46098); details: Compound concentration 1.0 uM
KiSS-1 receptor = KiSS-1 receptor (Homo sapiens, UniProt Q969F8); assay: Agonist activity for hGPR54 (C-terminal ethyl amide)
[44] = molecular target: 5-hydroxytryptamine receptor 2A (Homo sapiens) (UniProt P28223); details: Compound concentration 1.0 uM
[45] = molecular target: D(4) dopamine receptor (Homo sapiens) (UniProt P21917); details: Compound concentration 1.0 uM

Structure (SMILES): CNC(=N)NCCC[C@H](NC(=O)[C@H](CC(C)C)NC(=O)NNC(=O)[C@H](Cc1ccccc1)NC(=O)[C@H](CO)NC(=O)[C@H](CC(N)=O)NC(=O)[C@@H](Cc1ccncc1)NC(=O)[C@H](N)Cc1ccc(O)cc1)C(=O)N[C@@H](Cc1ccccc1)C(N)=O [KISS1-305] (H-[dY][d4Pal]NSF[azaGly]L[Arg(Me)]F-NH2)
- inhibition [1]: 18.5%
- inhibition [2]: 8.84%
- inhibition [3]: 25.1%
- inhibition [4]: 4.19%
- Ki ([5]; read-out: Ki): 47.5 nM
- Ki ([5]; read-out: pKi (converted)): 44.7 nM
- inhibition [6]: 10.7%
- inhibition [7]: 29.3%
- inhibition [8]: 2.17%
- inhibition [9]: 10.4%
- inhibition [10]: 8.6%
- inhibition [11]: 20.1%
- inhibition [12]: 13.8%
- inhibition [13]: 12.8%
- inhibition [14]: 17.6%
- inhibition [15]: 0.557%
- inhibition [16]: 0.512%
- inhibition [17]: -7.58%
- inhibition [18]: 5.4%
- inhibition [19]: -5.31%
- inhibition [20]: -9.06%
- inhibition [21]: 0.859%
- inhibition [22]: -7.65%
- inhibition [23]: 4.38%
- inhibition [24]: -2.33%
- inhibition [25]: 13.6%
- inhibition [26]: 19.9%
- inhibition [27]: 1.13%
- IC50 [28]: 8.94 nM (active)
- inhibition [29]: 1.39%
- inhibition [30]: -8.85%
- inhibition [31]: 3.72%
- inhibition [32]: 12%
- inhibition [33]: 24.1%
- inhibition [34]: 4.93%
- inhibition (Rattus norvegicus): 31.4%
- inhibition [35]: 1.39%
- inhibition [36]: 10.4%
- inhibition [37]: 13.9%
- inhibition [38]: 14.9%
- inhibition [39]: 7.09%
- inhibition [40]: -6.31%
- inhibition [41]: 43.3%
- inhibition [42]: -4.62%

Structure (SMILES): CNC(=N)NCCC[C@H](NC(=O)[C@H](CC(C)C)NC(=O)NNC(=O)[C@H](Cc1ccccc1)NC(=O)[C@H](CO)NC(=O)[C@H](CC(N)=O)NC(=O)[C@@H](Cc1cccnc1)NC(=O)[C@H](N)Cc1ccc(O)cc1)C(=O)NCC(N)=O [KISS1-543] (H-[dY][d3Pal]NSF[azaGly]L[Arg(Me)]G-NH2)
- inhibition [1]: 30.9%
- inhibition [2]: -0.408%
- inhibition [3]: 40.7%
- inhibition [4]: -0.48%
- inhibition [6]: 24.7%
- inhibition [7]: 31%
- inhibition [8]: 15.1%
- inhibition [9]: -3.39%
- inhibition [43]: -8.29%
- inhibition [10]: 10.2%
- inhibition [11]: 16.3%
- EC50 (KiSS-1 receptor): > 1000 nM (not active)
- inhibition [12]: 18.5%
- inhibition [13]: -2.67%
- inhibition [14]: 14.5%
- inhibition [15]: 3.41%
- inhibition [44]: 16.9%
- inhibition [16]: 29.2%
- inhibition [17]: -0.599%
- inhibition [18]: -1.33%
- inhibition [19]: -8.74%
- inhibition [21]: 9.68%
- inhibition [22]: -2.08%
- inhibition [45]: -9.83%
- inhibition [23]: 3.31%
- inhibition [24]: -6.69%
- inhibition [25]: 12.3%
- inhibition [27]: 11.3%
- inhibition [29]: -2.89%
- inhibition [30]: -3.9%
- inhibition [31]: 0.205%
- inhibition [32]: 10.4%
- inhibition [33]: 27.9%
- inhibition [34]: -0.513%
- inhibition (Rattus norvegicus): 15.6%
- inhibition [35]: 15.5%
- inhibition [36]: 12.4%
- inhibition [37]: 9.13%
- inhibition [38]: 12.3%
- inhibition [39]: 2.7%
- inhibition [40]: -5.75%
- inhibition [41]: 12.5%
- inhibition [42]: -7.85%
